Converted amounts (≈) assume the structure as drawn.
Columns and labels:
[1] = target: T1, Phosphatidylinositol 4,5-bisphosphate 3-kinase catalytic subunit beta isoform (Homo sapiens, UniProt P42338); assay: Inhibition of human recombinant PI3K p110beta expressed in Sf21 insect cells using phosphatidylinositol as substrate after 1 hr by phosphoimaging
[2] = target: T2, Phosphatidylinositol 4,5-bisphosphate 3-kinase catalytic subunit delta isoform (Homo sapiens, UniProt O00329); assay: Inhibition of human His-tagged PI3K p110delta after 2 hrs by HTRF assay
T2 sequence (O00329 whole entry): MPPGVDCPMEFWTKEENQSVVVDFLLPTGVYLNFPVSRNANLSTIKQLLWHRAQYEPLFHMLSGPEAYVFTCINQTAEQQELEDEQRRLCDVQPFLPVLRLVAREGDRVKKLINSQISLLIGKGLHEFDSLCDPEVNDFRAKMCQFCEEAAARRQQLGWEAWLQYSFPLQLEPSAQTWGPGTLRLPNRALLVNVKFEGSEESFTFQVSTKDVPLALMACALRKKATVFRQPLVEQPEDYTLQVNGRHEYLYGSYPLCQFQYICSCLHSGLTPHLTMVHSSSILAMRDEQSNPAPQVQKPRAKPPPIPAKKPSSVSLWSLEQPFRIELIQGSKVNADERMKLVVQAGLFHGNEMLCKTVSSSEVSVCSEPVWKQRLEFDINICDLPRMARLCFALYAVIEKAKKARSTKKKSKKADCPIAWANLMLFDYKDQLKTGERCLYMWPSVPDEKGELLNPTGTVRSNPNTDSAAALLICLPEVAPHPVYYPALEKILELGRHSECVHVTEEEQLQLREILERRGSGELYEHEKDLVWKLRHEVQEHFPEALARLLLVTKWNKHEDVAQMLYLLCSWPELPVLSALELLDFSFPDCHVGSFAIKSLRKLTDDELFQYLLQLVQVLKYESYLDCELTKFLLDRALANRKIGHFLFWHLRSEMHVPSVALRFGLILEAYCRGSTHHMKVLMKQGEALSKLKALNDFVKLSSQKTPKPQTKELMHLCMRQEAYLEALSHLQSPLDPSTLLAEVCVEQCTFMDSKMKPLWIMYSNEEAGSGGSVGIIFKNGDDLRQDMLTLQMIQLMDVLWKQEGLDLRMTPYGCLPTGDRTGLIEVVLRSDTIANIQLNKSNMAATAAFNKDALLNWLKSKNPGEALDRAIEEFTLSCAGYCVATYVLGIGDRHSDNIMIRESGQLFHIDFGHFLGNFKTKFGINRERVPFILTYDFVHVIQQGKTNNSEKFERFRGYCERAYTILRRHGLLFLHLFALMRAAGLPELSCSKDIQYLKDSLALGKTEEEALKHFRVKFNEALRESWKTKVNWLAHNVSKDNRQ

[3] = Inhibition of bovine recombinant PI3K p110delta expressed in Sf21 insect cells using phosphatidylinositol as substrate after 1 hr by phosphoimaging; set-up: species or system Bos taurus
cells [4] = settings: Homo sapiens, HCT-116
[5] = target: T3, Phosphatidylinositol 4,5-bisphosphate 3-kinase catalytic subunit alpha isoform (Homo sapiens, UniProt P42336); assay: Inhibition of human His-tagged PI3K p110alpha after 2 hrs by HTRF assay
[6] = target: T3, Phosphatidylinositol 4,5-bisphosphate 3-kinase catalytic subunit alpha isoform; assay: Inhibition of PIK3CA-mediated cell signaling in PTEN-deficient human U87MG cells assessed as inhibition of insulin-induced pAkt/PKB phosphorylation at Thr308 treated for 15 mins before insulin challenge measured after 5 mins by immunoblotting; format: cell-based, U-87MG ATCC
[7] = target: Phosphatidylinositol 4,5-bisphosphate 3-kinase catalytic subunit gamma isoform (Homo sapiens, UniProt P48736); assay: Inhibition of human His-tagged PI3K p110gamma after 2 hrs by HTRF assay
cells [8] = settings: Homo sapiens, HCT-116; remark: listed apart in the source
cells [9] = settings: Homo sapiens, NZB5
[10] = Half life in CD1 mouse at 10 mg/kg, ip administered as single dose by LC-MS/MS analysis; format: ADME, organism-based; set-up: dose 10 mg/kg, route intraperitoneal; settings: in vivo
[11] = target: Phosphatidylinositol 4,5-bisphosphate 3-kinase catalytic subunit alpha isoform (Mus musculus, UniProt P42337); assay: Inhibition of mouse recombinant PI3K p110alpha expressed in Sf21 insect cells using phosphatidylinositol as substrate after 1 hr by phosphoimaging
[12] = Tmax in CD1 mouse at 10 mg/kg, ip administered as single dose by LC-MS/MS analysis; format: ADME, organism-based; set-up: dose 10 mg/kg, route intraperitoneal; settings: in vivo
[13] = AUC (infinity) in CD1 mouse at 10 mg/kg, ip administered as single dose by LC-MS/MS analysis; format: ADME, organism-based; set-up: time infinity, dose 10 mg/kg, route intraperitoneal; settings: plasma
[14] = Cmax in CD1 mouse at 10 mg/kg, ip administered as single dose by LC-MS/MS analysis; format: ADME, organism-based; set-up: dose 10 mg/kg, route intraperitoneal; settings: in vivo
[15] = target: T1, Phosphatidylinositol 4,5-bisphosphate 3-kinase catalytic subunit beta isoform; assay: Inhibition of human His-tagged PI3K p110beta after 2 hrs by HTRF assay
[16] = target: Phosphatidylinositol 4,5-bisphosphate 3-kinase catalytic subunit alpha isoform (Homo sapiens, UniProt P42336, H1047R); assay: Inhibition of human His-tagged PI3K p110alpha H1047R mutant after 2 hrs by HTRF assay
[17] = target: Phosphatidylinositol 4,5-bisphosphate 3-kinase catalytic subunit alpha isoform (Homo sapiens, UniProt P42336, E545K); assay: Inhibition of human PI3K p110alpha helical domain E545K mutant after 2 hrs by HTRF assay
cells [18] = settings: Homo sapiens, NZOV9
[19] = target: T3, Phosphatidylinositol 4,5-bisphosphate 3-kinase catalytic subunit alpha isoform; assay: Inhibition of PIK3CA-mediated cell signaling in PTEN-deficient human U87MG cells assessed as inhibition of insulin-induced pAkt/PKB phosphorylation at Ser473 treated for 15 mins before insulin challenge measured after 5 mins by immunoblotting; format: cell-based, U-87MG ATCC
[20] = Aqueous solubility of the compound in water after 15 mins by HPLC analysis; settings: aqueous medium
Mus musculus [21] = assay: Toxicity in PTEN-deficient human U87MG cells xenografted Rag1-/- mouse assessed as delayed body weight loss at 50 mg/kg, ip qd for 10 days; format: organism-based, U-87MG ATCC; set-up: dose 50 mg/kg, route intraperitoneal; settings: in vivo, 240 h
[22] = Antitumor activity in PTEN-deficient human U87MG xenografted in Rag1-/- mouse assessed as inhibition of tumor growth at 15 mg/kg, ip qd for 10 days measured after 10 days (reference value: 18.5 +/- 3.4%); format: functional, U-87MG ATCC; settings: U-87 MG, 240 h, route intraperitoneal, read-out: GI
Mus musculus [23] = assay: Toxicity in PTEN-deficient human U87MG cells xenografted Rag1-/- mouse assessed as body weight loss at 15 mg/kg, ip qd for 10 days; format: organism-based, U-87MG ATCC; set-up: dose 15 mg/kg, route intraperitoneal; settings: in vivo, 240 h
[24] = Antitumor activity in PTEN-deficient human U87MG xenografted in Rag1-/- mouse assessed as inhibition of tumor growth at 40 mg/kg, ip qd for 10 days measured after 10 days (reference value: 18.5 +/- 3.4%); format: functional, U-87MG ATCC; settings: U-87 MG, 240 h, read-out: GI, route intraperitoneal
Mus musculus [25] = assay: Toxicity in PTEN-deficient human U87MG cells xenografted Rag1-/- mouse assessed as body weight loss at 40 mg/kg, ip qd for 10 days; format: organism-based, U-87MG ATCC; set-up: dose 40 mg/kg, route intraperitoneal; settings: in vivo, 240 h

Chain of Phosphatidylinositol 4,5-bisphosphate 3-kinase catalytic subunit alpha isoform (Mus musculus, UniProt P42337) (P42337 whole entry, canonical isoform): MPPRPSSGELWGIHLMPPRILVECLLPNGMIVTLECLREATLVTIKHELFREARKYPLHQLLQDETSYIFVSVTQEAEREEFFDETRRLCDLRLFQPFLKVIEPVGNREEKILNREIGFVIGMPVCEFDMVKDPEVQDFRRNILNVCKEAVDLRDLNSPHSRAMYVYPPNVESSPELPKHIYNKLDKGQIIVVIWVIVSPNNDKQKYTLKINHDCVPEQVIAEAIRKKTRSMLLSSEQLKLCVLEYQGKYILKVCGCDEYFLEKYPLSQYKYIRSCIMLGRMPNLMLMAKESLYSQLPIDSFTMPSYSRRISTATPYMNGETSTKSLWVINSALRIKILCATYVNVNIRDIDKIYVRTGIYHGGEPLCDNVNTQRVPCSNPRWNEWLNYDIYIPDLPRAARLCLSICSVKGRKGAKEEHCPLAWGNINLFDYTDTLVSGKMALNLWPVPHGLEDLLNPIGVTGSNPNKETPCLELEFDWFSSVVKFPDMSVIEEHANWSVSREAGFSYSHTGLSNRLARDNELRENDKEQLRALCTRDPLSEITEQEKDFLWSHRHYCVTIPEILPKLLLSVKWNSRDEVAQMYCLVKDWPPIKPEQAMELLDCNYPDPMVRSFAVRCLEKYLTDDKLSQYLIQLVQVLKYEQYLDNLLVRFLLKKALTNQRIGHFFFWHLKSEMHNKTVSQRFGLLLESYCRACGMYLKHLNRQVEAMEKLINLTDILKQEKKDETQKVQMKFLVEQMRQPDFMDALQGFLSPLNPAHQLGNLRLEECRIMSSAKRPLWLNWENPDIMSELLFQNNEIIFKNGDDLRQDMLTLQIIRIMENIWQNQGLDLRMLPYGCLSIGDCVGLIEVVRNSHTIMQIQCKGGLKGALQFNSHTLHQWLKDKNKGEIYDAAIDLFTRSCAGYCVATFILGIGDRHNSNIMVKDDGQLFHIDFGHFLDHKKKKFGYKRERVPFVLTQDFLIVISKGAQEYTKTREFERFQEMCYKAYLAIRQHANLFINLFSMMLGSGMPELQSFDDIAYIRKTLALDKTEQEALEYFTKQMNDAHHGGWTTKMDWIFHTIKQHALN
Chain of Phosphatidylinositol 4,5-bisphosphate 3-kinase catalytic subunit alpha isoform (Homo sapiens, UniProt P42336, H1047R) (P42336 whole entry H1047R, the tested form may be a part, canonical isoform): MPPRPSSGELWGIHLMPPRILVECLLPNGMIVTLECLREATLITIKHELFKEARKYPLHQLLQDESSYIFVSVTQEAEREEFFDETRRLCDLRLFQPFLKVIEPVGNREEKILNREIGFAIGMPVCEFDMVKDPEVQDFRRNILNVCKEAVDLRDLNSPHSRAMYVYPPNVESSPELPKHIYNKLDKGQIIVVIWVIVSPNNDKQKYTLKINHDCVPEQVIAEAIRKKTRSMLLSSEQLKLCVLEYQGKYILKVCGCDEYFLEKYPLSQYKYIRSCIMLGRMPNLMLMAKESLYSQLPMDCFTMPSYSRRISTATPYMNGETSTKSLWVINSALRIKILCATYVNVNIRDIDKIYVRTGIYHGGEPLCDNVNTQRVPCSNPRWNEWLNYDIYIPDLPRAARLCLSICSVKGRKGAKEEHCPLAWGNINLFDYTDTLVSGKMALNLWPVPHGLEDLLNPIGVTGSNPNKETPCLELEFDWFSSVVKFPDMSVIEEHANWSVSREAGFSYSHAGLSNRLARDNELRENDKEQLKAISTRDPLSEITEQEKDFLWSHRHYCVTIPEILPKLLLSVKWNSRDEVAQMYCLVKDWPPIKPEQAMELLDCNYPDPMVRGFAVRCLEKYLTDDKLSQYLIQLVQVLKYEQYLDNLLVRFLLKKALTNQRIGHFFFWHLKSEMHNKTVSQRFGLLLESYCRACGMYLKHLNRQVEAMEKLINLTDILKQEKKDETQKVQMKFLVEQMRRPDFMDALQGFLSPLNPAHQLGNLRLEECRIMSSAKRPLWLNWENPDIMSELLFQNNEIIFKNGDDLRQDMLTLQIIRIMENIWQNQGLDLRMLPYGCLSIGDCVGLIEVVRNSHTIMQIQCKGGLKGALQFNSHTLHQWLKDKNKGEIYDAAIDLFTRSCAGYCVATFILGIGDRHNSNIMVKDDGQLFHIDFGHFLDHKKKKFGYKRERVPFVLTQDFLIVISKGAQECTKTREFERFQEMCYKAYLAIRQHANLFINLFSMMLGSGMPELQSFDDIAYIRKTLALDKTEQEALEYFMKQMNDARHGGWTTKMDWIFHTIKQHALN
T3 sequence (P42336 whole entry, canonical isoform): as the sequence (P42336 whole entry H1047R, the tested form may be a part, canonical isoform) above, with R1047H counted along it
Chain of Phosphatidylinositol 4,5-bisphosphate 3-kinase catalytic subunit alpha isoform (Homo sapiens, UniProt P42336, E545K) (P42336 whole entry E545K, the tested form may be a part, canonical isoform): as the sequence (P42336 whole entry H1047R, the tested form may be a part, canonical isoform) above, with E545K, R1047H counted along it
T1 sequence (P42338 whole entry, canonical isoform): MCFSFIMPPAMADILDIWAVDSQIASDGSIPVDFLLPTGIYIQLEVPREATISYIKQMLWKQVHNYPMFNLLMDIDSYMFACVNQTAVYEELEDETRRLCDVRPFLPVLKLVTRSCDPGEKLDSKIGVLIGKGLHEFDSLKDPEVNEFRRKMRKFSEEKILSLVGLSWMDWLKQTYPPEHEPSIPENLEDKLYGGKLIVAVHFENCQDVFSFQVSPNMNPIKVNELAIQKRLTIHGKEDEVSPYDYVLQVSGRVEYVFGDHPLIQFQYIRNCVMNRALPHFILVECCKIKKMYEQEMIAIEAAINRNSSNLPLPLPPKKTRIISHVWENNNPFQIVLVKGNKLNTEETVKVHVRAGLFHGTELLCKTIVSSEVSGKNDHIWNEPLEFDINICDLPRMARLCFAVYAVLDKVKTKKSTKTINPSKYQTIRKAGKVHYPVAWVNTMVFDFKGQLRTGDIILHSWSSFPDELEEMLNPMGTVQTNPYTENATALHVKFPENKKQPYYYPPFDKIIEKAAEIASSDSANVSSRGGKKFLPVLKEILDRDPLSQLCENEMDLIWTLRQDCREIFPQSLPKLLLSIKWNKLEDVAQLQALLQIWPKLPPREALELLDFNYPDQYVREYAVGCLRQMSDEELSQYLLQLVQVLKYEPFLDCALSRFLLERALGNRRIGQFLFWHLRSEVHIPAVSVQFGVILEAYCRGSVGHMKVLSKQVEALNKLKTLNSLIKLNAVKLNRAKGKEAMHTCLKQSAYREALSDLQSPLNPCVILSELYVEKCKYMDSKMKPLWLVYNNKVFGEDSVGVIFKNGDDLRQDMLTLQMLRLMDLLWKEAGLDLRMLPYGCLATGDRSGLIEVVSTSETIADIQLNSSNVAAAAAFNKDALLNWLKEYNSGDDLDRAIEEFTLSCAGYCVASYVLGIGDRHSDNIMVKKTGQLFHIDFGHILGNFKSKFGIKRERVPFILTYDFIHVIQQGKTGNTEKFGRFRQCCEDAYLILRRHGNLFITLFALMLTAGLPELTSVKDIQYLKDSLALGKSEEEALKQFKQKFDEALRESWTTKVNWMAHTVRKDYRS
Chain of Phosphatidylinositol 4,5-bisphosphate 3-kinase catalytic subunit gamma isoform (P48736 whole entry, canonical isoform): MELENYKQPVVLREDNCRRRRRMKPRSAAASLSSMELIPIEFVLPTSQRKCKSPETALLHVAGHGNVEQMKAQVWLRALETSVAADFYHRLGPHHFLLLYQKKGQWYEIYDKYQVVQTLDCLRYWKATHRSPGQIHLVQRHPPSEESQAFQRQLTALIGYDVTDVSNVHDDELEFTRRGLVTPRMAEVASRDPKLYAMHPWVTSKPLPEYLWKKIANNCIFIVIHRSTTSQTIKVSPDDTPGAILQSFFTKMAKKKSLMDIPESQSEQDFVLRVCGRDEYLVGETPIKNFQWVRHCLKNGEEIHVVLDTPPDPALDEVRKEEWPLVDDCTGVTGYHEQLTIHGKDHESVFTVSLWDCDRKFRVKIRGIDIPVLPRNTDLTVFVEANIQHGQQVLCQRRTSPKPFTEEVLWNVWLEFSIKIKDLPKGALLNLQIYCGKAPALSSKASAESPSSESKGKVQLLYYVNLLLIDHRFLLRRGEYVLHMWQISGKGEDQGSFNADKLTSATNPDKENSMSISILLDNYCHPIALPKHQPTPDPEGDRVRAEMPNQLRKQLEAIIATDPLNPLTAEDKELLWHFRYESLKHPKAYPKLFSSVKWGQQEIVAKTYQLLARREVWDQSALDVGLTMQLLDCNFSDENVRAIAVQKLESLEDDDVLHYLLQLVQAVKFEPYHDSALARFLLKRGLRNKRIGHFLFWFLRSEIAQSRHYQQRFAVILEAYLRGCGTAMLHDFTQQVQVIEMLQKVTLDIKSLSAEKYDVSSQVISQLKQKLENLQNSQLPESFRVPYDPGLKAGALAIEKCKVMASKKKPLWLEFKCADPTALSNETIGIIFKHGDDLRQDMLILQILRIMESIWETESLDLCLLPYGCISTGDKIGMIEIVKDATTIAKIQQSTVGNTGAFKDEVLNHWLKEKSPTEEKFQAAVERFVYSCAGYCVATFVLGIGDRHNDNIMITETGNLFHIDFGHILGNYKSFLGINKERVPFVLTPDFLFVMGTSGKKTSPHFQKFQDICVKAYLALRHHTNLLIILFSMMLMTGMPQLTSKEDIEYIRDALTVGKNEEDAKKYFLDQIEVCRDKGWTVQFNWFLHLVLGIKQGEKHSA

Compound	IC50 [1] [µM]	IC50 [2] [µM]	IC50 (cells [4]) [µM]	IC50 [5] [µM]	IC50 [6] [µM]	IC50 [7] [µM]	IC50 (cells [8]) [µM]	IC50 (cells [9]) [µM]	half-life [10] [h]	IC50 [11] [µM]	Tmax [12] [h]	AUC(0-inf) [13] [µM·h]	Cmax [14] [nM]	IC50 [15] [µM]	IC50 [16] [µM]	IC50 [17] [µM]	IC50 (cells [18]) [µM]	IC50 [19] [µM]	solubility at […] [20] [µg/mL]	IC50 [3] [µM]	further results
FC(F)Oc1cccc2c1nc(C(F)F)n2-c1nc(N2CCOCC2)nc(N2CCOCC2)n1	0.056	0.034	0.415	0.0047	0.418	0.056	0.381	0.047		0.026				> 2.5	0.0085	0.003	0.028	0.427		0.0074	
COc1ccc2c(nc(C(F)F)n2-c2nc(N3CCOCC3)nc(N3CCOCC3)n2)c1O	0.0067	0.002	0.507	0.07	0.378	0.052	0.515	0.334		0.037				0.044	0.158	0.049	0.13	0.583		0.0003	
COc1cc(N)cc2c1nc(C(F)F)n2-c1nc(N2CCOCC2)nc(N2CCOCC2)n1			0.012						1.48		0.083	5.22	3450								Activity (Mus musculus [21]): Toxic
Cn1c(=O)n(-c2ccc(C(C)(C)C#N)cc2)c2c3cc(-c4cnc5ccccc5c4)ccc3ncc21 [DACTOLISIB]																					inhibition in vivo at 15 mg/kg [22]: 31.5%; Activity (Mus musculus [23]): Non-toxic

The next lines start with results.

IC50 [1] [µM]	IC50 [2] [µM]	IC50 (cells [4]) [µM]	IC50 [5] [µM]	IC50 [6] [µM]	IC50 [7] [µM]	IC50 (cells [8]) [µM]	IC50 (cells [9]) [µM]	half-life [10] [h]	IC50 [11] [µM]	Tmax [12] [h]	AUC(0-inf) [13] [µM·h]	Cmax [14] [nM]	IC50 [15] [µM]	IC50 [16] [µM]	IC50 [17] [µM]	IC50 (cells [18]) [µM]	IC50 [19] [µM]	solubility at […] [20] [µg/mL]	Compound	IC50 [3] [µM]	further results
0.00068	0.00065	0.0083	0.00053	0.0029	0.006	0.00018	0.03	1.55	0.0009	0.25	1.03	628	0.0035	0.00083	0.00012	0.01	0.0013	0.32 (≈ 0.738 µM)	Oc1cccc2c1nc(C(F)F)n2-c1nc(N2CCOCC2)nc(N2CCOCC2)n1	0.00027	
		0.097				0.078		1.52		2	9.66	2360						0.61 (≈ 1.46 µM)	FC(F)c1nc2ccccc2n1-c1nc(N2CCOCC2)nc(N2CCOCC2)n1 [ZSTK-474]		inhibition in vivo at 40 mg/kg [24]: 65.3%; Activity (Mus musculus [25]): Non-toxic

Reference: ChEMBL document CHEMBL1909493, “Synthesis and biological evaluation of novel analogues of the pan class I phosphatidylinositol 3-kinase (PI3K) inhibitor 2-(difluoromethyl)-1-[4,6-di(4-morpholinyl)-1,3,5-triazin-2-yl]-1H-benzimidazole (ZSTK474)” (J Med Chem, 2011)
